{"source": "patent US7902327B2", "about": "“Dendrimeric peptides, pharmaceutical compositions and methods of using the same” (New York University School of Medicine, priority 2007, dated 2011)", "system": "E. faecalis (29212)", "conditions": "29212", "note": "Where a SMILES comes first, the peptide text is derived from it. Side-chain parts run from the residue outwards. [ ]: non-standard residue; d: D form. The star is where a group is joined. Lys(α,ε-(ArgTrp)2) = N=C(N)NCCC[C@H](N)C(=O)N[C@@H](Cc1c[nH]c2ccccc12)C(=O)NCCCC[C@H](NC(=O)[C@H](Cc1c[nH]c2ccccc12)NC(=O)[C@@H](N)CCCNC(=N)N)C(=O)*; NHBn = c1ccc(CN*)cc1; OBn = c1ccc(CO*)cc1; X1 = CCCCCCCCCN*; βAla = NCCC(=O)O"}
{"compound": "CCCCCCCCCNC(=O)CCNC(=O)[C@H](CCCCNC(=O)[C@H](CCCCNC(=O)[C@H](Cc1c[nH]c2ccccc12)NC(=O)[C@@H](N)CCCNC(=N)N)NC(=O)[C@H](Cc1c[nH]c2ccccc12)NC(=O)[C@@H](N)CCCNC(=N)N)NC(=O)[C@H](CCCCNC(=O)[C@H](Cc1c[nH]c2ccccc12)NC(=O)[C@@H](N)CCCNC(=N)N)NC(=O)[C@H](Cc1c[nH]c2ccccc12)NC(=O)[C@@H](N)CCCNC(=N)N", "note": "[(RW)4D-Nonylamine] (H-RWK([Trp-Arg])K(Lys(α,ε-(ArgTrp)2))[βAla]-X1)", "values": [{"measurement": "MIC50 E. faecalis", "value": 5.7, "unit": "µg/mL"}]}
{"compound": "N=C(N)NCCC[C@H](N)C(=O)N[C@@H](Cc1c[nH]c2ccccc12)C(=O)NCCCC[C@H](NC(=O)[C@H](Cc1c[nH]c2ccccc12)NC(=O)[C@@H](N)CCCNC(=N)N)C(=O)NCCCC[C@H](NC(=O)[C@H](CCCCNC(=O)[C@H](Cc1c[nH]c2ccccc12)NC(=O)[C@@H](N)CCCNC(=N)N)NC(=O)[C@H](Cc1c[nH]c2ccccc12)NC(=O)[C@@H](N)CCCNC(=N)N)C(=O)NCCC(=O)OCc1ccccc1", "note": "[(RW)4D-Benzyl ester] (H-RWK([Trp-Arg])K(Lys(α,ε-(ArgTrp)2))[βAla]-OBn)", "values": [{"measurement": "MIC50 E. faecalis", "value": 6.7, "unit": "µg/mL"}]}
{"compound": "N=C(N)NCCC[C@H](N)C(=O)N[C@@H](Cc1c[nH]c2ccccc12)C(=O)NCCCC[C@H](NC(=O)[C@H](Cc1c[nH]c2ccccc12)NC(=O)[C@@H](N)CCCNC(=N)N)C(=O)NCCCC[C@H](NC(=O)[C@H](CCCCNC(=O)[C@H](Cc1c[nH]c2ccccc12)NC(=O)[C@@H](N)CCCNC(=N)N)NC(=O)[C@H](Cc1c[nH]c2ccccc12)NC(=O)[C@@H](N)CCCNC(=N)N)C(=O)NCCC(=O)NCc1ccccc1", "note": "[(RW)4D-Benzyl amine] (H-RWK([Trp-Arg])K(Lys(α,ε-(ArgTrp)2))[βAla]-NHBn)", "values": [{"measurement": "MIC50 E. faecalis", "value": 5.1, "unit": "µg/mL"}]}
